Laboratory results as given in ChEMBL document CHEMBL3351519, “Synthetic studies on mitotic kinesin Eg5 inhibitors: synthesis and structure-activity relationships of novel 2,4,5-substituted-1,3,4-thiadiazoline derivatives” (Bioorg Med Chem Lett, 2014).

How the values were obtained:
Mus musculus [1] = test: Toxicity in human A2780 cells xenografted SCID mouse assessed as mortality at 100 mg/kg, po bid for 5 days; format: organism-based; design: dose 100 mg/kg, route oral; details: in vivo, 120 h
HCT-116 = test: Induction of mitotic accumulation in human HCT116 cells Hoechst 33342 staining based by fluorescence microscopy; format: functional
A2780 [2] = test: Antitumor activity against human A2780 cells xenografted in SCID mouse assessed as tumor volume ratio at 100 mg/kg, po bid for 5 days relative to untreated control; format: functional
[3] = Growth inhibition of human HCT116 cells; format: functional; details: HCT-116
Mus musculus [4] = test: Toxicity in human A2780 cells xenografted SCID mouse assessed as induction of body weight loss at 100 mg/kg, po bid for 5 days; format: organism-based; design: dose 100 mg/kg, route oral; details: in vivo, 120 h
[5] = target: T1, Kinesin-like protein KIF11 (Homo sapiens, UniProt P52732); test: Inhibition of Eg5 (unknown origin)
T1 sequence (P52732 whole entry): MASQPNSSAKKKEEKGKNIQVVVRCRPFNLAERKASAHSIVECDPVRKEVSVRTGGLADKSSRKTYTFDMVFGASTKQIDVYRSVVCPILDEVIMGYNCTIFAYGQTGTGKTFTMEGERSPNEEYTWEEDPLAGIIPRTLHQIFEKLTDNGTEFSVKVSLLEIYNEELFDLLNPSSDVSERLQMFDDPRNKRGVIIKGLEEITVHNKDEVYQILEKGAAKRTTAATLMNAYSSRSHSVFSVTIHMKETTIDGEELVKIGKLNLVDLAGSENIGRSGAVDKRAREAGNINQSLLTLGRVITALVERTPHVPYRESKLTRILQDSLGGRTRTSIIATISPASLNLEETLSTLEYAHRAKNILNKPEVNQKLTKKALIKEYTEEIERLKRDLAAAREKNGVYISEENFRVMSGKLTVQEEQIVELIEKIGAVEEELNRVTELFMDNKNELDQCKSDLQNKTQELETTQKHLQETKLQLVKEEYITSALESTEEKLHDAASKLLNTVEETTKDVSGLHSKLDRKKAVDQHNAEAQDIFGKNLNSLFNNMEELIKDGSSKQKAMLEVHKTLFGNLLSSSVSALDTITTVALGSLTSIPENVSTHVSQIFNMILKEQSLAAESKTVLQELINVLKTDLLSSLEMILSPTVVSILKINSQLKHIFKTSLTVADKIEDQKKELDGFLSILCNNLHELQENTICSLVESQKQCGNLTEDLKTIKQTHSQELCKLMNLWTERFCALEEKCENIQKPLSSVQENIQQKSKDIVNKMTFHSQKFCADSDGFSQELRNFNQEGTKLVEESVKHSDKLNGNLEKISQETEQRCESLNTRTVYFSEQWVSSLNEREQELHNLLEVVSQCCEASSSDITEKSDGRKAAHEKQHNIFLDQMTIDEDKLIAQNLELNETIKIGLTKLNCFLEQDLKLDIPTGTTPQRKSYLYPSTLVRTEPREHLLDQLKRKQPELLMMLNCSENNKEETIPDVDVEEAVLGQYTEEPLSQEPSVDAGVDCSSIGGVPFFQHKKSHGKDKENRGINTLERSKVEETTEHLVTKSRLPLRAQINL

[6] = Intrinsic clearance in mouse liver microsomes; format: ADME; details: read-out: CLH (converted)
Mus musculus [7] = test: Toxicity in human A2780 cells xenografted SCID mouse assessed as induction of body weight loss at 0.625 mg/kg, po bid for 5 days; format: organism-based; design: dose 0.625 mg/kg, route oral; details: in vivo, 120 h
A2780 [8] = test: Antitumor activity against human A2780 cells xenografted in SCID mouse assessed as tumor volume ratio at 5 mg/kg, po bid for 5 days relative to untreated control; format: functional
A2780 [9] = test: Antitumor activity against human A2780 cells xenografted in SCID mouse assessed as tumor volume ratio at 0.625 mg/kg, po bid for 5 days relative to untreated control; format: functional
Mus musculus [10] = test: Toxicity in human A2780 cells xenografted SCID mouse assessed as induction of body weight loss at 5 mg/kg, po bid for 5 days; format: organism-based; design: dose 5 mg/kg, route oral; details: in vivo, 120 h
Mus musculus [11] = test: Toxicity in human A2780 cells xenografted SCID mouse assessed as mortality at 0.625 mg/kg, po bid for 5 days; format: organism-based; design: dose 0.625 mg/kg, route oral; details: in vivo, 120 h
Mus musculus [12] = test: Toxicity in human A2780 cells xenografted SCID mouse assessed as mortality at 5 mg/kg, po bid for 5 days; format: organism-based; design: dose 5 mg/kg, route oral; details: in vivo, 120 h
[13] = Oral absorption in mouse; format: ADME, organism-based; details: in vivo
A2780 [14] = test: Antitumor activity against human A2780 cells xenografted in SCID mouse assessed as tumor volume ratio at 2.5 mg/kg, po bid for 5 days relative to untreated control; format: functional
Mus musculus [15] = test: Toxicity in human A2780 cells xenografted SCID mouse assessed as mortality at 2.5 mg/kg, po bid for 5 days; format: organism-based; design: dose 2.5 mg/kg, route oral; details: in vivo, 120 h
[16] = Therapeutic index, ratio of MTD in human A2780 cells xenografted SCID mouse to ED50 for human A2780 cells xenografted in SCID mouse; format: cell-based; details: in vivo, read-out: TI
Mus musculus [17] = test: Toxicity in human A2780 cells xenografted SCID mouse assessed as induction of body weight loss at 10 mg/kg, po bid for 5 days; format: organism-based; design: dose 10 mg/kg, route oral; details: in vivo, 120 h
Mus musculus [18] = test: Toxicity in human A2780 cells xenografted SCID mouse assessed as mortality at 10 mg/kg, po bid for 5 days; format: organism-based; design: dose 10 mg/kg, route oral; details: in vivo, 120 h
Mus musculus [19] = test: Toxicity in human A2780 cells xenografted SCID mouse assessed as induction of body weight loss at 2.5 mg/kg, po bid for 5 days; format: organism-based; design: dose 2.5 mg/kg, route oral; details: in vivo, 120 h
A2780 [20] = test: Antitumor activity against human A2780 cells xenografted in SCID mouse assessed as tumor volume ratio at 10 mg/kg, po bid for 5 days relative to untreated control; format: functional
A2780 [21] = test: Antitumor activity against human A2780 cells xenografted in SCID mouse assessed as reduction in tumor volume dosed orally twice daily for 5 days relative to untreated control; format: functional, organism-based

Structure (SMILES)	MI20 (HCT-116) [nmol/L]	GI50 [3] [nM]	IC50 [5] [nM]	further results
CC(=O)NC1=NN(C(C)=O)C(C)(c2ccccc2)S1 (stereo not given)	1100	1000		Activity (Mus musculus [1]): Non-toxic; T/C (A2780 [2]): 0.18; Activity (Mus musculus [4]): Non-toxic
CC(=O)N1N=C(N)SC1(C)c1ccccc1 (stereo not given)	>10000			
CC(C)(C)C(=O)NC1=NN(C(=O)C(C)(C)C)C(CC#N)(c2ccccc2)S1 (stereo not given)	>10000			
CC(C)(C)C(=O)NC1=NN(C(=O)C(C)(C)C)C(CS(C)(=O)=O)(c2ccccc2)S1 (stereo not given)	>10000			
COCC1(c2ccccc2)SC(NC(=O)C(C)(C)C)=NN1C(=O)C(C)(C)C (stereo not given)	430	560		
CC(=O)NCC1(c2ccccc2)SC(NC(=O)C(C)(C)C)=NN1C(=O)C(C)(C)C (stereo not given)	2200			
CC(C)(C)C(=O)NC1=NN(C(=O)C(C)(C)C)C(CNS(C)(=O)=O)(c2ccccc2)S1 (stereo not given)	16	17	44	
CC(C)(C)C(=O)NC1=NN(C(=O)C(C)(C)C)C(CCNS(C)(=O)=O)(c2ccccc2)S1 (stereo not given)	71	63	120	CLint scaled [6]: 32.5 mL/min/kg
CCC(=O)NC1=NN(C(=O)CC)C(C)(c2ccccc2)S1 (stereo not given)	1700			
CC(C)C(=O)NC1=NN(C(=O)C(C)C)C(C)(c2ccccc2)S1 (stereo not given)	460	550		
CC(C)CC(=O)NC1=NN(C(=O)CC(C)C)C(C)(c2ccccc2)S1 (stereo not given)	170	190	520	
CC1(c2ccccc2)SC(NC(=O)c2ccccc2)=NN1C(=O)c1ccccc1 (stereo not given)	>10000			
CCC(=O)N1N=C(NC(=O)C(C)(C)C)SC1(CCNS(C)(=O)=O)c1ccccc1 (racemic)	114		111	CLint scaled [6]: 14.8 mL/min/kg
CC(C)C(=O)N1N=C(NC(=O)C(C)(C)C)SC1(CCNS(C)(=O)=O)c1ccccc1 (racemic)	114		110	CLint scaled [6]: 14.8 mL/min/kg
CC(C)C(=O)N1N=C(NC(=O)C(C)(C)C)SC1(CCNS(C)(=O)=O)c1ccccc1 (single isomer, unassigned; (+))	>10000			
CCC(=O)N1N=C(NC(=O)C(C)(C)C)SC1(CCNS(C)(=O)=O)c1ccccc1 (single isomer, unassigned; (-)) [listing 1 of 2 here]	55	560	64	Activity (Mus musculus [7]): Non-toxic; T/C (A2780 [8]): 0.08; T/C (A2780 [9]): 0.5; Activity (Mus musculus [10]): Non-toxic; Activity (Mus musculus [11]): Non-toxic; Activity (Mus musculus [12]): Non-toxic
CC(C)C(=O)N1N=C(NC(=O)C(C)(C)C)SC1(CCNS(C)(=O)=O)c1ccccc1 (single isomer, unassigned; (-)) [listing 1 of 2 here]	40	63	48	Fa [13]: 62%; T/C (A2780 [14]): 0.5; Activity (Mus musculus [15]): Non-toxic; selectivity ratio [16]: 8; Activity (Mus musculus [17]): Non-toxic; Activity (Mus musculus [18]): Non-toxic; Activity (Mus musculus [19]): Non-toxic; T/C (A2780 [20]): 0.27
CC(C)C(=O)N1N=C(NC(=O)C(C)(C)C)SC1(CCNS(C)(=O)=O)c1ccccc1 (single isomer, unassigned; (-)) [listing 2 of 2 here]				TGI (A2780 [21]): Dose-dependent effect
CCC(=O)N1N=C(NC(=O)C(C)(C)C)SC1(CCNS(C)(=O)=O)c1ccccc1 (single isomer, unassigned; (-)) [listing 2 of 2 here]				TGI (A2780 [21]): Dose-dependent effect
CCC(=O)N1N=C(NC(=O)C(C)(C)C)SC1(CCNS(C)(=O)=O)c1ccccc1 (stereo in doubt; (+)-12a)	>10000			
